In patent US10328161B2, “Luciferin derivatives from bicyclic reactants and aminothiol derivatives and methods of use thereof” (The Regents of the University of California, priority 2012, dated 2019):
Blank lines part the entries; values can stand above or below the compound they belong to.

Assays:
caspase 8 = molecular target: T1, caspase 8 (Homo sapiens, UniProt Q14790); experiment: Selectivity assay for IETDC: caspase 8; format: biochemical
T1 construct: purchased Sigma-Aldrich
Method: (§1) Millipore water was used to prepare all aqueous solutions. Luciferase (100 μg/mL) in 50 mM Tris buffer, pH 7.4, with 10 mM MgCl2, 0.1 mM ZnCl2, and 2 mM ATP was added to selectivity assay samples (described below) to determine the relative amount of luciferin formed during incubation. Measurements for bioluminescent assays were performed at 37° C. and were recorded using a Molecular Devices SpectraMax M2 plate reader (Sunnyvale, Calif.). Samples for bioluminescent measurements were placed in white, opaque 96-well plates, which were purchased from Corning Inc. (Corning, N.Y.). ATP was purchased from MP Biomedicals (Solon, Ohio) or Sigma-Aldrich (St. Louis, Mo.), and luciferase was purchased from Promega (Madison, Wis.). Caspase enzymes were purchased from Sigma-Aldrich (St. Louis, Mo.), and caspase inhibitors were purchased from MP Biomedicals (Solon, Ohio).
For determination of caspase selectivity, various caspases (3 and 8:1 unit, 9:0.001 unit) were administered to IETDC or D-cysteine (5 μM) in Tris buffer (50 mM, pH 7.4). […] After each enzyme was incubated with IETDC or D-cysteine for 60 min, 100 μL of a Tris buffer (50 mM, pH 7.4) containing luciferase (100 μg/mL), 10 mM MgCl2, 0.1 mM ZnCl2, and 2 mM ATP was added to 100 μL of the IETDC or D-cysteine solutions and the bioluminescent signal was detected.

PC3M-luc cells [1] = experiment: Comparison of in situ luciferin formation and luciferin in PC3M-luc cells (intact and lysed); format: cell-based; conditions: inferred from intact versus lysed PC3M-luc cells
Method: (§2) A Xenogen IVIS Spectrum instrument (Caliper Life Sciences, Hopkinton, Mass.) was used for bioluminescent imaging in all cellular experiments. PC3M-luc cells (kindly provided by Chris Contag, Stanford University) were cultured in Dulbecco's Modified Eagle Medium (DMEM) containing 10% Fetal Bovine Serum (FBS). Prior to assaying, cells were passed and plated (1.3-1.5×10^4 cells/well) in black 96-well plates with clear bottoms (Becton Dickinson and Company, Franklin Lakes, N.J.). Once the cells were ca. 95% confluent, reagents were added for bioluminescent assays.
PC3M-luc cells prepared as described above were washed with HBSS (25 mM glucose) prior to addition of HCBT and D-cysteine (0-500 μM, 1% DMSO) or luciferin (0-500 μM, 1% DMSO) in HBSS (25 mM glucose). For experiments with lysed cells, 100 μL Glo lysis buffer (Promega, Madison, Wis.) was incubated with the PC3M-luc cells for 5 min prior to addition of HCBT and D-cysteine or luciferin. The plates were immediately imaged for 2 h to determine the peak bioluminescent signal produced.

PC3M-luc cells [2] = experiment: Lifetime of HCBT and D-cysteine in PC3M-luc cells; format: cell-based; conditions: 100 μM, 30 min incubation, wash, complementary reagent after 0-60 min
Method: as §2
The medium was removed from PC3M-luc cells prepared as described above, and HCBT (100 μM, 1% DMSO) or D-cysteine (100 μM, 1% PBS) in DMEM (-FBS) was added. After a 30 min incubation, the HCBT or D-cysteine was removed, the cells were washed with DMEM (-FBS), and fresh DMEM was added. After 0, 15, 30, 45, or 60 min, the second component of luciferin, D-cysteine (100 μM final concentration, 1% PBS) or HCBT (100 μM final concentration, 1% DMSO) in HBSS (25 mM glucose) was added, and the plate was immediately imaged for 2 h to determine the peak bioluminescent signal produced.

[3] = Exogenous H2O2 experiments in mice; format: in vivo; conditions: for Turn-on: PCL-1 0.5 μmol
Text: (§3) A Xenogen IVIS Spectrum instrument (Caliper Life Sciences, Hopkinton, Mass.) was used for bioluminescent imaging in all animal experiments. Mice were anesthetized prior to injection and during imaging via inhalation of isoflurane. Phosphate Buffered Saline (PBS) was purchased from Thermo Fisher Scientific (Waltham, Mass.), and saline (0.9%) was made from sodium chloride and Millipore water. Isoflurane was purchased from Phoenix Pharmaceuticals, Inc. (St. Joseph, Mo.), and pharmaceutical grade DMSO was purchased from Sigma-Aldrich (St. Louis, Mo.). Medical grade oxygen was purchased from Praxair (Danbury, Conn.).
(§4) FVB-luc^+ (FVB-Tg(CAG-luc,-GFP)L2G85Chco/J) mice were bred at UC Berkeley, and were single or group-housed on a 12:12 light-dark cycle at 22° C. with free access to food and water. All studies were approved and performed according to the guidelines of the Animal Care and Use Committee of the University of California, Berkeley.
Unshaven, male FVB-luc^+ mice were anesthetized with isoflurane and injected IP with a mixture of PCL-2 and D-cysteine (0.05 μmol each, in 50 μL of 1:1 DMSO:PBS), followed immediately by an IP injection of H2O2 (0-4.5 μmol in 100 μL of PBS). Control mice were injected IP with a mixture of HCBT and D-cysteine (0.01 μmol each, in 50 μL of 1:1 DMSO:PBS) immediately prior to H2O2 (4.5 μmol in 100 μL of PBS). Following injections, mice were imaged with an IVIS Spectrum.

[4] = Selectivity assays for dual H2O2 and caspase 8 detection in vitro; format: biochemical; conditions: for effect of a single inhibitor on the dual-analyte signal: catalase 1 unit or Q-VD-OPh 10 μM, with H2O2 and caspase 8; for effect of both inhibitors together on the dual-analyte signal: catalase 1 unit plus Q-VD-OPh 10 μM combined; for interference with in situ luciferin formation from HCBT and D-cysteine: catalase 1 unit, Q-VD-OPh 10 μM
Method: as §1
To quench H2O2 immediately, catalase (1 unit) was subsequently added to some of the solutions. After 60 min, catalase (1 unit) was added to all other solutions containing H2O2 to quench any remaining H2O2. Subsequently, caspase 8 (1 unit) was added to the solutions in the presence or absence of the caspase inhibitor, Q-VD-OPh (10 μM), 15 min prior to IETDC (10 μM) or D-cysteine (5 μM) addition. Following IETDC or D-cysteine addition, the solutions were incubated for 60 min. Additionally, dithiothreitol (1 mM) was added to all solutions at the time of caspase 8 addition to maintain the reduced state of the D-cysteine. To monitor luciferin formation, 100 μL of a Tris buffer (50 mM, pH 7.4) containing luciferase (100 μg/mL), 10 mM MgCl2, 0.1 mM ZnCl2, and 2 mM ATP was added to 100 μL of the PCL-2/IETDC or HCBT/D-cysteine solutions and the bioluminescent signal was detected.

[5] = Lipopolysaccharide inflammation model, H2O2 detection with PCL-2; format: in vivo, mice; conditions: apocynin 10 mg/kg IP, LPS-treated mice
Text: as §3, §4
Unshaven, female FVB-luc^+ mice, aged 2-5 months, were anesthetized with isoflurane and injected IP with lipopolysaccharides (LPS, 3 mg/kg in 50 μL of saline) or saline (50 μL). For studies with PCL-2 alone, mice were injected IP with either apocynin (10 mg/kg in 20 μL of DMSO) or DMSO (20 μL) 6 h after LPS injection. […]

FVB-luc^+ mice = experiment: Control: effect of inhibitors and antioxidants on HCBT and D-cysteine luciferin signal in mice; format: in vivo
Method: (a) Total photon fluxes, 0-15 min post-injection, for mice (n=3) injected with apocynin (IP, 10 mg/kg in 20 μL DMSO) or vehicle (IP, 20 μL DMSO) two min prior to injections of a mixture of HCBT and D-cysteine (IP, 0.01 μmol each, in 50 μL of 1:1 DMSO:PBS). (b) Total photon fluxes, 15-45 min post-injection, for mice (n=3) injected with z-VD(OMe)-OPh (IP, 1 μmol in 20 μL DMSO) or vehicle (IP, 20 μL DMSO) 30 min prior to injections of a mixture of HCBT and D-cysteine (IP, 0.01 μmol each, in 50 μL of 1:1 DMSO:PBS). Error bars are ±SEM.
FIG. 18 depicts bioluminescent signals from HCBT and D-cysteine with ascorbic acid in FVB-luc^+ mice. Total photon fluxes, 30-60 min post-injection, for mice (n=3-4) injected with ascorbic acid (IP, 200 mg/kg in 30 μL saline) or vehicle (IP, 30 μL saline) 4.5 h prior to injections of a mixture of HCBT and D-cysteine (IP, 0.01 μmol each, in 50 μL of 1:1 DMSO:PBS). Error bars are ±SEM.

H2O2 and caspase 8 = experiment: Lipopolysaccharide inflammation model, dual detection with PCL-2 and IETDC; format: in vivo; conditions: ascorbic acid 200 mg/kg and z-VD-OPh 1 μmol used together, LPS-treated mice
Text: as §3, §4
For studies with PCL-2 and IETDC, mice were injected IP with ascorbic acid (200 mg/kg in 30 μL of saline) or the saline vehicle (30 μL) 30 min prior to IP injection of LPS (3 mg/kg in 50 μL of saline) or saline (50 μL). Two hours after injection of LPS, z-VD(OMe)-OPh (1 μmol in 20 μL of DMSO) or the vehicle, DMSO (20 μL), was injected IP. […]

[6] = Selectivity assay for PCL-2: response to H2O2; format: biochemical; conditions: H2O2 100 μM and catalase 0.4 mg/mL
Method: as §1
Various ROS (100 μM) were administered to PCL-2 or HCBT (5 μM) in Tris buffer (50 mM, pH 7.4) with or without 10 mM MgCl2 and 0.1 mM ZnCl2. […] After an additional 15 min incubation, 100 μL of a Tris buffer (50 mM, pH 7.4) containing luciferase (100 μg/mL), 10 mM MgCl2, 0.1 mM ZnCl2, and 2 mM ATP was added to 100 μL of the PCL-2 or HCBT solutions and the bioluminescent signal was detected.

T1 sequence (Q14790 217-374 limits assumed, species assumed): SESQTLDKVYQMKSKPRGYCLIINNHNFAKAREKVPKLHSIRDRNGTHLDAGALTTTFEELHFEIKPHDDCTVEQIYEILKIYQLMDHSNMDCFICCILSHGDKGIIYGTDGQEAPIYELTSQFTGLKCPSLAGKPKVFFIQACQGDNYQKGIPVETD
T1 sequence (Q14790 385-479 limits assumed, species assumed): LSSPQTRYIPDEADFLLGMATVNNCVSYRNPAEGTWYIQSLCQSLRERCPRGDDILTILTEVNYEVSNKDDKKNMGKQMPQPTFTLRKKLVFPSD

- change in bioluminescent signal on incubation with caspase enzymes (caspase 8; D-cysteine 5 μM with HCBT, caspases 8, 3, 9): no change in bioluminescent signal
- permeability across the cell membrane compared to luciferin (PC3M-luc cells [1]): increased permeability
Compound: N[C@H](CS)C(=O)O [D-cysteine]
- cellular lifetime: signal as time between removal and addition of the complementary reagent increases (PC3M-luc cells [2]): still fully available for reaction with HCBT

Compound: O=C(O)[C@H]1CSC(c2nc3ccc(OCc4ccc(B(O)O)cc4)cc3s2)=N1 [PCL-1]
- Turn-on ([3]; H2O2 0.037 μmol): 1.5-fold
- Turn-on ([3]; H2O2 0.15 μmol): 2.0-fold
- Turn-on ([3]; H2O2 0.6 μmol): 2.7-fold
- detection limit for H2O2 in vivo ([3]; IP, FVB-luc^+ mice, optimized imaging conditions for each probe): 0.037 µmol

- effect of caspase inhibitor on the response of IETDC to caspase 8 (caspase 8; Q-VD-OPh 10 μM): complete attenuation
- effect of a single inhibitor on the dual-analyte signal [4]: attenuated the increase in signal
- effect of both inhibitors together on the dual-analyte signal [4]: complete attenuation of signal
Compound: CC(C)[C@H](NC(=O)c1ccc2ccccc2n1)C(=O)N[C@@H](CC(=O)O)C(=O)COc1c(F)cccc1F [Q-VD-OPh]
- interference with in situ luciferin formation from HCBT and D-cysteine [4]: did not interfere with in situ luciferin formation

Compound: COc1cc(C(C)=O)ccc1O [apocynin]
- reduction in PCL-2 signal upon treatment [5]: 55%
- effect on the luciferin signal from HCBT and D-cysteine in vivo (FVB-luc^+ mice; apocynin 10 mg/kg or z-VD-OPh 1 μmol IP, HCBT and D-cysteine 0.01 μmol each): do not alter the luciferin signal

Compound: O=C1O[C@H]([C@@H](O)CO)C(O)=C1O [ascorbic acid]
- decrease in dual-probe bioluminescent signal (H2O2 and caspase 8): 30%
- effect on the bioluminescent signal from HCBT and D-cysteine (FVB-luc^+ mice; ascorbic acid 200 mg/kg IP 4.5 h before HCBT and D-cysteine 0.01 μmol each): did not impact the bioluminescent signal

- effect of catalase on the H2O2 turn-on signal of PCL-2 [6]: attenuated
- effect of a single inhibitor on the dual-analyte signal [4]: attenuated the increase in signal
- effect of both inhibitors together on the dual-analyte signal [4]: complete attenuation of signal
Compound: catalase
- interference with in situ luciferin formation from HCBT and D-cysteine [4]: did not interfere with in situ luciferin formation
